Assay results published in ChEMBL document CHEMBL5649166, “RIP3 induces apoptosis independent of pronecrotic kinase activity” (Mol Cell, 2014).
Calls of active or inactive are those of the source. The calls are words filed in the database; no cut-off is given here.

Legend:
[1] = biological target: T1, Inhibitor of nuclear factor kappa-B kinase subunit epsilon (Homo sapiens) (UniProt Q14164); assay: Inhibition of human IKKe/IKBKE using casein as substrate at 1 uM in presence of 32P-ATP by Hotspot assay relative to control; values are per cent of control
T1 sequence (whole entry): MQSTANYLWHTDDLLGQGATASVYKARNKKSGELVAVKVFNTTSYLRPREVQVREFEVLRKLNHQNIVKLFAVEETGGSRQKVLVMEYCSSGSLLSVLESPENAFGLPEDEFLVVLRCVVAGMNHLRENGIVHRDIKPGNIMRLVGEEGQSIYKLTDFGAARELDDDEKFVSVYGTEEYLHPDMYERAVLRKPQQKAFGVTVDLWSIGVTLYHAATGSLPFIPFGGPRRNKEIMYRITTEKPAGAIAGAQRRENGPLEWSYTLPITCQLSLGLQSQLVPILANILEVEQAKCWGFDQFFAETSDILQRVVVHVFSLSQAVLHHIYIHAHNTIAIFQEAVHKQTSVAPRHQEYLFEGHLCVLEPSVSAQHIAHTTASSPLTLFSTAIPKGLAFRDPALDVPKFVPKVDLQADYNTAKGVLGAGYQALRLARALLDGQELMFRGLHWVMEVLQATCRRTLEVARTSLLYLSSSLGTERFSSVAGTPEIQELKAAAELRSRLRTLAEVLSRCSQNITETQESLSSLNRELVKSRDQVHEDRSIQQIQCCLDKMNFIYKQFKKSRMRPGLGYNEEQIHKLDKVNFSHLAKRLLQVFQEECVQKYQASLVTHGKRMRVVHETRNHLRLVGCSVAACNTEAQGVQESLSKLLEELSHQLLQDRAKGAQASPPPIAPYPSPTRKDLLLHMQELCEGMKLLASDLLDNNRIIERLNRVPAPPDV

[2] = biological target: T2, Serine/threonine-protein kinase NLK (Homo sapiens) (UniProt Q9UBE8); assay: Inhibition of human NLK using myelin basic protein as substrate at 1 uM in presence of 32P-ATP by Hotspot assay relative to control; values are per cent of control
T2 sequence (whole entry): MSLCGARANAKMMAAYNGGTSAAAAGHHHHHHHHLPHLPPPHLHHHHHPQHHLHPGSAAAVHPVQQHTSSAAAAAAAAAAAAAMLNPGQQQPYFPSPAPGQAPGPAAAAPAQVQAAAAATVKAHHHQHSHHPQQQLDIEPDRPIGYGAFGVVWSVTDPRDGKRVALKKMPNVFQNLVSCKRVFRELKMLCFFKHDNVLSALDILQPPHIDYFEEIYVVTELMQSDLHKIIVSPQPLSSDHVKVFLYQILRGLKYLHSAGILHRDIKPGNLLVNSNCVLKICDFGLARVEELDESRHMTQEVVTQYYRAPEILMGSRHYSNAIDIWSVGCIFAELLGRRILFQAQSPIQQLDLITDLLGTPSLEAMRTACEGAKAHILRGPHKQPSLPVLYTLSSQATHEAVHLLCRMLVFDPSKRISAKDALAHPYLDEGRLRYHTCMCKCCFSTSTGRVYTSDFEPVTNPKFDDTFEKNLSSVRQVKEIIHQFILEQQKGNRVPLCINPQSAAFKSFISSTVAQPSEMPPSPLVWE

[3] = biological target: Serine/threonine-protein kinase Nek4 (Homo sapiens) (UniProt P51957); assay: Inhibition of human NEK4 using myelin basic protein as substrate at 1 uM in presence of 32P-ATP by Hotspot assay relative to control; values are per cent of control
Sequence of Serine/threonine-protein kinase Nek4 (Homo sapiens) (P51957 whole entry, looked up): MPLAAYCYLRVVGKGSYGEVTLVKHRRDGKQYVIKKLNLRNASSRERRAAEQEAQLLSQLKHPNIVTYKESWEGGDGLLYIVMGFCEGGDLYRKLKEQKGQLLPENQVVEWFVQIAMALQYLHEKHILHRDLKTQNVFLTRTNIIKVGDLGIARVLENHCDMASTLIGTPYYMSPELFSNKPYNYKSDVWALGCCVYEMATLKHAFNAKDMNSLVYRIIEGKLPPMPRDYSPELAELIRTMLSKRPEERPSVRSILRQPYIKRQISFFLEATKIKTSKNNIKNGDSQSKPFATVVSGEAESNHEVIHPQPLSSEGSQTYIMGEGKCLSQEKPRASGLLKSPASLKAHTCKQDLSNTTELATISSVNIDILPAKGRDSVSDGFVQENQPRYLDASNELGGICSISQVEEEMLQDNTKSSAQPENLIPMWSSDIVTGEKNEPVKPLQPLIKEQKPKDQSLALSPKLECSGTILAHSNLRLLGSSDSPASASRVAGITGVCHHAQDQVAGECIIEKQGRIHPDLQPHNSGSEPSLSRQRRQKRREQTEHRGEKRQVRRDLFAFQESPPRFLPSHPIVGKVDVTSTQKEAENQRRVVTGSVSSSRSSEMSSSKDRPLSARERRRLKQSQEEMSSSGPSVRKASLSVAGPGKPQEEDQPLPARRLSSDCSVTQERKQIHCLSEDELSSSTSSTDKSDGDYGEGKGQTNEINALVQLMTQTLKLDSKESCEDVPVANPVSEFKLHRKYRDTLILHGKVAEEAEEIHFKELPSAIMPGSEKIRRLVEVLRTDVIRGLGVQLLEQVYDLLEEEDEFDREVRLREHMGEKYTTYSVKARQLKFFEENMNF

[4] = biological target: CDK6/cyclin D3 (Homo sapiens) (UniProt P30281+Q00534); assay: Inhibition of human CDK6/cyclin D3 using RB Protein as substrate at 1 uM in presence of 32P-ATP by Hotspot assay relative to control; values are per cent of control
[5] = biological target: T3, Dual specificity mitogen-activated protein kinase kinase 6 (Homo sapiens) (UniProt P52564); assay: Inhibition of human MKK6 using p38a (K53A) as substrate at 1 uM in presence of 32P-ATP by Hotspot assay relative to control; values are per cent of control
T3 sequence (whole entry): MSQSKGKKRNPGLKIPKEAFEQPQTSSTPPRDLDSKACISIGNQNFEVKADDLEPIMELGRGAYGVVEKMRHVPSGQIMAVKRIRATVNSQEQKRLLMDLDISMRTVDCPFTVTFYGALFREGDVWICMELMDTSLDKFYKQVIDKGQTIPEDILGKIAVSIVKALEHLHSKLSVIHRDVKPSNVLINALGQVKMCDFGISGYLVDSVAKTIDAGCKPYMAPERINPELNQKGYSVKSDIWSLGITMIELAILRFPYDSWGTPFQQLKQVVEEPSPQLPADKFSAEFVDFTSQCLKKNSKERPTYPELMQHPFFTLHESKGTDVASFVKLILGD

[6] = biological target: Casein kinase I isoform gamma-1 (Homo sapiens) (UniProt Q9HCP0); assay: Inhibition of human CK1g1 using KRRRAL[pS]VASLPGL as substrate at 1 uM in presence of 32P-ATP by Hotspot assay relative to control; values are per cent of control
Sequence of Casein kinase I isoform gamma-1 (Homo sapiens) (Q9HCP0 whole entry, looked up, canonical isoform): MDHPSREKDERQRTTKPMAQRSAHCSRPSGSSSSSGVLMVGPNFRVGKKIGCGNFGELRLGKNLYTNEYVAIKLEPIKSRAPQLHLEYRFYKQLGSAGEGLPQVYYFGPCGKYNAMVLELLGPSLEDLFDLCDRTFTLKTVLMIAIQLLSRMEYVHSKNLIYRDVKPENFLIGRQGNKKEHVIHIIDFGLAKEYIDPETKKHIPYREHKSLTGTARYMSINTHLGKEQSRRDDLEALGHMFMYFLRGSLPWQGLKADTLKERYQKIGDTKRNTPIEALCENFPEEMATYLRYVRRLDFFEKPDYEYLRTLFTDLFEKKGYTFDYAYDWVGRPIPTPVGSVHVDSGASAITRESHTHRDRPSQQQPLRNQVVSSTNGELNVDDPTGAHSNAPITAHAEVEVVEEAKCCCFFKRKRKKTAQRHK

[7] = test system: Peritoneal macrophage cell; assay: Inhibition of TNF-alpha induced necroptosis in thioglycolate-elicited mouse peritoneal macrophage assessed as increase in cell viability at 0.04 to 1 uM incubated for 24 hrs in presence of zVAD and SMAC007 by Cell Titer-Glo luminescent cell viability assay; type: functional, cell-based; details: dose 0.04-1 µM
[8] = biological target: Tyrosine-protein kinase ABL1 (Homo sapiens) (UniProt P00519); assay: Inhibition of human ABL1 using EAIYAAPFAKKK as substrate at 1 uM in presence of 32P-ATP by Hotspot assay relative to control; values are per cent of control
[9] = biological target: BDNF/NT-3 growth factors receptor (Homo sapiens) (UniProt Q16620); assay: Residual activity of human TRKB using poly[Glu:Tyr] (4:1) as substrate at 1 uM in presence of 32P-ATP by Hotspot assay relative to control
Sequence of BDNF/NT-3 growth factors receptor (Homo sapiens) (Q16620 32-822 limits assumed): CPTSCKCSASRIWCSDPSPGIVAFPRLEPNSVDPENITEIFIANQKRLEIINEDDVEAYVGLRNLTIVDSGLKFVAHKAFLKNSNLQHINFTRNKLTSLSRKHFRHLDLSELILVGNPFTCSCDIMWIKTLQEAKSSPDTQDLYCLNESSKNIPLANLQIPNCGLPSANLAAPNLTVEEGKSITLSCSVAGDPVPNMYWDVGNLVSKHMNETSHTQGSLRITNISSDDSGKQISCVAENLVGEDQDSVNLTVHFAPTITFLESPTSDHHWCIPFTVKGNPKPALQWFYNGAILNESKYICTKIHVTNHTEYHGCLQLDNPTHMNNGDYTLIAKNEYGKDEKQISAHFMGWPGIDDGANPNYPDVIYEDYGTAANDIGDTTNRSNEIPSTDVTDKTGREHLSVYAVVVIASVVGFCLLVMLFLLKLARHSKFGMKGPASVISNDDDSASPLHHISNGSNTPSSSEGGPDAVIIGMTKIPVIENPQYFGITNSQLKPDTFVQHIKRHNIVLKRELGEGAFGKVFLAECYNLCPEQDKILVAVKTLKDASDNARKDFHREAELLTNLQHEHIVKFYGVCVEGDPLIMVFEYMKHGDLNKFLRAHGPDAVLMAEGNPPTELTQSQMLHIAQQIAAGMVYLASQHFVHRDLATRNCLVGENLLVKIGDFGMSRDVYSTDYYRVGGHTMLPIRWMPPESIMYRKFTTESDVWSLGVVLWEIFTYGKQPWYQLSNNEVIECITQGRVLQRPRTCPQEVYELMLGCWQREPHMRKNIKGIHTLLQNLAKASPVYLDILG

[10] = biological target: Tyrosine-protein kinase ABL2 (Homo sapiens) (UniProt P42684); assay: Inhibition of human ABL2/ARG using EAIYAAPFAKKK as substrate at 1 uM in presence of 32P-ATP by Hotspot assay relative to control; values are per cent of control
Sequence of Tyrosine-protein kinase ABL2 (Homo sapiens) (P42684 whole entry): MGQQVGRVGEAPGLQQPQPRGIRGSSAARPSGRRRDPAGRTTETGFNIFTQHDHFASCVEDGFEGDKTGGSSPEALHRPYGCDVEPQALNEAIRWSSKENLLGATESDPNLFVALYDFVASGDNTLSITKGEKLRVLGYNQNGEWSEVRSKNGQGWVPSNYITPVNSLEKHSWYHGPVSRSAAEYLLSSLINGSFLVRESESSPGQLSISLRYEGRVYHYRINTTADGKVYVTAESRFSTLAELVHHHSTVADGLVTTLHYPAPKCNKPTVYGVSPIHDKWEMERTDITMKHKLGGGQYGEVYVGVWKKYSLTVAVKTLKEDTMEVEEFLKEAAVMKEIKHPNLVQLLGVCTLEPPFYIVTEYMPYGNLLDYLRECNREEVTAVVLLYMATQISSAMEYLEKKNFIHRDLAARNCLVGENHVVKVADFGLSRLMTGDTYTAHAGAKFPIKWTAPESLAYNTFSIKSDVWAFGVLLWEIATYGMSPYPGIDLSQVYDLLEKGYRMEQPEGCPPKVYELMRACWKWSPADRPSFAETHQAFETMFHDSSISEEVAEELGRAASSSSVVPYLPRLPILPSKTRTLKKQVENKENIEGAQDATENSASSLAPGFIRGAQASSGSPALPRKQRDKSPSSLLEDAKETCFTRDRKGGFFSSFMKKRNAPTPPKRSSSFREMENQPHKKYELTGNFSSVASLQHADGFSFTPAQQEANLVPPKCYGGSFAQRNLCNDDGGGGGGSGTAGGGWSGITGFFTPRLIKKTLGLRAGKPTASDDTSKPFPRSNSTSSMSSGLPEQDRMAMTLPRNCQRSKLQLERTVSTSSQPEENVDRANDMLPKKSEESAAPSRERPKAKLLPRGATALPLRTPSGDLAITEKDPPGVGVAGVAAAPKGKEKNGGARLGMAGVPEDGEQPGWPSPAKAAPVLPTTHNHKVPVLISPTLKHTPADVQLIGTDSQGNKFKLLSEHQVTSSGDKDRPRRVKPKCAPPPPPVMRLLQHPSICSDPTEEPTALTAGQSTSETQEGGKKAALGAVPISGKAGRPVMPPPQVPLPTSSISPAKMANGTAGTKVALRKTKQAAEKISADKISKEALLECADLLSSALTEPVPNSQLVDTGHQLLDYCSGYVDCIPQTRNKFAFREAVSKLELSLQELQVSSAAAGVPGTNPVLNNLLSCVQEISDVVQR

[11] = biological target: Ephrin type-A receptor 2 (Homo sapiens) (UniProt P29317); assay: Inhibition of human EPHA2 using poly[Glu:Tyr] (4:1) as substrate at 1 uM in presence of 32P-ATP by Hotspot assay relative to control; values are per cent of control
Sequence of Ephrin type-A receptor 2 (Homo sapiens) (P29317 whole entry): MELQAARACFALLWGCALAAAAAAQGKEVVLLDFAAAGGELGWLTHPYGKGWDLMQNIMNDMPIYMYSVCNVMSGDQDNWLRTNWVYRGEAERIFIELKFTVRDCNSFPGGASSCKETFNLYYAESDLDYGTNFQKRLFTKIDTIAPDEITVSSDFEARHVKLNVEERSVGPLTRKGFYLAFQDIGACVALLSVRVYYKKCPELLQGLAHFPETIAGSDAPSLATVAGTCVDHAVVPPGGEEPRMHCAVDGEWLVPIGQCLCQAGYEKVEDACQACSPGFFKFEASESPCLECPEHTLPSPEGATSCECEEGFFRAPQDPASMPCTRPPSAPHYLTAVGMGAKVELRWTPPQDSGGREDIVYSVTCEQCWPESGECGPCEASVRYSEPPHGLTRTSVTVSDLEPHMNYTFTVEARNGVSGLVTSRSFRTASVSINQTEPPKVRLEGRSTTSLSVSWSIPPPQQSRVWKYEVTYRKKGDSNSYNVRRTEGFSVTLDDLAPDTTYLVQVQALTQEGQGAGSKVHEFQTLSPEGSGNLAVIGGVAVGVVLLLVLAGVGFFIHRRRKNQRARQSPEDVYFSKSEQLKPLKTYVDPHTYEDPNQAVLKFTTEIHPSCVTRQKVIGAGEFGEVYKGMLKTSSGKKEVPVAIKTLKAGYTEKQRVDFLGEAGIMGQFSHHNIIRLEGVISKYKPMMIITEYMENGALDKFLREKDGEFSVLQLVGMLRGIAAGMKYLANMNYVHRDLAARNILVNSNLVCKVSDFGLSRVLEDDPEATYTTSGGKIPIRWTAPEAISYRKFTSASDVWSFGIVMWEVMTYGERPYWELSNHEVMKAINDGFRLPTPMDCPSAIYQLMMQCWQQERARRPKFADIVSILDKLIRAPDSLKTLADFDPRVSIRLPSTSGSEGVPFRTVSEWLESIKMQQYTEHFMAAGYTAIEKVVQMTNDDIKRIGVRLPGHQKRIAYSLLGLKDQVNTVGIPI

Compound	residual activity [1]	residual activity [2]	residual activity [3]	residual activity [4]	residual activity [5]	residual activity [6]	inhibition [7]	residual activity [8]	residual activity [9]	residual activity [10]	residual activity [11]
Cc1cc(-c2cnc(N)c3c(-c4ccc5scnc5c4)csc23)n(C)n1	97.9%	6.75%	97.9%	89.6%	92.9%	94.2%	Active	6.1%	106%	7.38%	74.3%
CNC(=O)c1ccc2c(c1)ncn2-c1ccc(CC(=O)OC(C)(C)C)cc1	100%	99.7%	96.3%	51.5%	98.5%	97.1%	inactive	92.7%	97.8%	78.2%	97.3%
CC(C)S(=O)(=O)c1ccc2nccc(Nc3ccc4scnc4c3)c2c1	97.7%	41.8%	95.6%	88.3%	91.3%	103%	Active	25.8%	86.7%	12%	80.1%
